Assay results as given in patent publication US20250009819A1, “NOVEL PROBIOTICS AND USE THEREOF” (PBLBIOLAB CO., LTD., priority 2021, published 2025).

Experiments:
[1] = test system: gut microbiota; test: LPS production in gut microbiota (ELISA); type: cell-based; conditions: human feces culture; lactic acid bacteria 1×10^6 CFU/mL; anaerobic 24 hr
Experimental: Fresh human feces were suspended in anaerobic medium (GAM, Nissui Pharmaceutical Co., Ltd., Japan) and allowed to stand for 10 min. The supernatant was diluted with 10,000-fold anaerobic medium, 0.05 mL of the dilution was transplanted into 5 mL of freshly made anaerobic medium, and lactic acid bacteria (1×10^6 CFU/mL) were implanted and incubated anaerobically for 24 hr.

[2] = test system: BDNF; test: BDNF expression in SH-SY5Y cells; type: cell-based; conditions: LPS 200 ng/ml; lactic acid bacteria 1×10^4 CFU/ml; 24 h
Experimental: (§1) SH-SY5Y cells obtained from the Korean Cell Line Bank were cultured in DMEM medium supplemented with 10% FBS and 1% antibiotics, and dispensed at 2×10^6 cells per well in a 12-well plate. Then, LPS (200 ng/ml) was added to each well along with lactic acid bacteria (1×10^4 CFU/ml) and incubated for 24 h. The cells and supernatants were collected, sonicated and centrifuged, and the amount of BDNF in the supernatant was measured by ELISA kit.

[3] = test system: TNF-α; test: TNF-α expression in LPS-treated macrophages (ELISA); type: cell-based, C57BL/6 mice; conditions: macrophages treated with lactic acid bacteria and LPS for 24 hours
Experimental: (§2) C57BL/6 mice (male, 6 weeks old, 20-23 g) were subjected to an intraperitoneal injection of 2 ml of sterile 4% thioglycolate solution, and after 96 hours, the mice were anesthetized and injected with 8 ml of RPMI 1640 medium through the peritoneal cavity. Then, after 5-10 minutes, the RPMI medium (macrophages) in the mouse peritoneal cavity was extracted, centrifuged at 1000 g for 10 minutes, and washed again with RPMI 1640 medium twice. Macrophages were seeded in 24-well plates at a count of 0.5×10^6 in each well, and treated with lactic acid bacteria and LPS, an inflammatory response-inducing substance, for 24 hours. TNF-α and IL-10 cytokine expression amount in the culture supernatant was then measured by ELISA Kit.

[4] = test system: IL-10; test: IL-10 expression in LPS-treated macrophages (ELISA); type: cell-based, C57BL/6 mice; conditions: macrophages treated with lactic acid bacteria and LPS for 24 hours
Experimental: as §2

[5] = test system: Clostridium difficile; test: Clostridium difficile proliferation in gut microbiota (PCR); type: cell-based; conditions: human feces culture; lactic acid bacteria 1×10^6 CFU/mL; anaerobic 24 hr
Experimental: Fresh human feces were suspended in anaerobic medium (GAM, Nissui Pharmaceutical Co., Ltd., Japan) and allowed to stand for 10 min. The supernatant was diluted with 10,000-fold anaerobic medium, 0.05 mL of the dilution was transplanted into 5 mL of freshly made anaerobic medium, and lactic acid bacteria (1×10^6 CFU/mL) were implanted and incubated anaerobically for 24 hr. This culture medium was divided into two, one was centrifuged (5000 rpm, 20 minutes), the precipitated DNA was isolated using the QIAamp DNA stool mini kit (Qiagen, Germany), and Clostridium difficile (primer: forward, 5′-[…]-3′ (SEQ ID NO: 4); reverse, 5′-[…]-3′ (SEQ ID NO: 5) was quantified by PCR. The reaction product was first treated at 95° C. for 30 seconds, followed by 42 cycles of 5 seconds at 95° C. and 30 seconds at 72° C. for analysis. In addition, one culture medium was sonicated, centrifuged, and filter-sterilized, and the amount of LPS in the supernatant was measured using an ELISA kit.

[6] = Antioxidant activity (DPPH, in vitro); type: biochemical; conditions: DPPH 0.2 mM; lactic acid bacteria suspension 1×10^8 CFU/ml; 37° C. 20 min
Experimental: DPPH (2,2-Diphenyl-1-picrylhydrazyl) was dissolved in ethanol to a concentration of 0.2 mM to prepare DPPH solution. Lactic acid bacteria suspension (1×10^8 CFU/ml) or vitamin C solution (1 g/ml) was added to 0.1 ml of the above DPPH solution and incubated at 37° C. for 20 min. The culture was centrifuged at 3000 rpm for 5 min to obtain a supernatant. The absorbance of the supernatant was then measured at 517 nm and the antioxidant activity of the lactic acid bacteria was calculated.

[7] = test system: Neuropeptide Y (NPY); test: Neuropeptide Y (NPY) expression in PC12 phaeochromocytoma cells; type: cell-based; conditions: LPS 200 ng/ml; lactic acid bacteria 1×10^4 CFU/ml; 24 hr
Experimental: as §1, with “PC12” for “SH-SY5Y”, “1×10^6” for “2×10^6”, “hr.” for “h.”, “NPY” for “BDNF”

Substance | Gut microbiota Inhibition of LPS production [1] | SHSY5Y cell Induction of BDNF expression [2] | Macrophage Inhibition of TNF-α expression [3] | Macrophage Induction of IL-10 expression [4] | Gut microbiota Inhibition of difficile bacteria proliferation [5] | Antioxidant activity [6] | PC12 cell Induction of NPY expression [7]
Lactobacillus johnsonii NK202 | + (weakly (+; >20-60%)) | + (weakly (+; >20-60%)) | + (weakly (+; >20-60%)) | + (weakly (+; >20-60%)) | + (weakly (+; >20-60%)) | + (weakly (+; >20-60%)) | + (weakly (+; >20-60%))
Lactobacillus johnsonii NK203 | − (not or less than 20% (−; <20%)) | − (not or less than 20% (−; <20%)) | + (weakly (+; >20-60%)) | + (weakly (+; >20-60%)) | − (not or less than 20% (−; <20%)) | + (weakly (+; >20-60%)) | − (not or less than 20% (−; <20%))
Lactobacillus mucosae NK204 | − (not or less than 20% (−; <20%)) | − (not or less than 20% (−; <20%)) | − (not or less than 20% (−; <20%)) | − (not or less than 20% (−; <20%)) | + (weakly (+; >20-60%)) | + (weakly (+; >20-60%)) | − (not or less than 20% (−; <20%))
Lactobacillus mucosae NK205 | − (not or less than 20% (−; <20%)) | − (not or less than 20% (−; <20%)) | − (not or less than 20% (−; <20%)) | − (not or less than 20% (−; <20%)) | − (not or less than 20% (−; <20%)) | + (weakly (+; >20-60%)) | + (weakly (+; >20-60%))
Lactobacillus paracasei NK189 | + (weakly (+; >20-60%)) | − (not or less than 20% (−; <20%)) | + (weakly (+; >20-60%)) | − (not or less than 20% (−; <20%)) | + (weakly (+; >20-60%)) | + (weakly (+; >20-60%)) | − (not or less than 20% (−; <20%))
Lactobacillus plantarum NK181 | − (not or less than 20% (−; <20%)) | − (not or less than 20% (−; <20%)) | + (weakly (+; >20-60%)) | − (not or less than 20% (−; <20%)) | + (weakly (+; >20-60%)) | + (weakly (+; >20-60%)) | + (weakly (+; >20-60%))
Lactobacillus plantarum NK182 | − (not or less than 20% (−; <20%)) | − (not or less than 20% (−; <20%)) | − (not or less than 20% (−; <20%)) | − (not or less than 20% (−; <20%)) | ++ (strongly (++; >60-90%)) | ++ (strongly (++; >60-90%)) | − (not or less than 20% (−; <20%))
Lactobacillus plantarum NK183 | + (weakly (+; >20-60%)) | − (not or less than 20% (−; <20%)) | + (weakly (+; >20-60%)) | − (not or less than 20% (−; <20%)) | + (weakly (+; >20-60%)) | + (weakly (+; >20-60%)) | − (not or less than 20% (−; <20%))
Lactobacillus plantarum NK184 | + (weakly (+; >20-60%)) | − (not or less than 20% (−; <20%)) | + (weakly (+; >20-60%)) | + (weakly (+; >20-60%)) | + (weakly (+; >20-60%)) | ++ (strongly (++; >60-90%)) | − (not or less than 20% (−; <20%))
Lactobacillus reuteri NK200 | + (weakly (+; >20-60%)) | + (weakly (+; >20-60%)) | − (not or less than 20% (−; <20%)) | − (not or less than 20% (−; <20%)) | + (weakly (+; >20-60%)) | + (weakly (+; >20-60%)) | + (weakly (+; >20-60%))
Lactobacillus reuteri NK201 | + (weakly (+; >20-60%)) | + (weakly (+; >20-60%)) | + (weakly (+; >20-60%)) | + (weakly (+; >20-60%)) | + (weakly (+; >20-60%)) | + (weakly (+; >20-60%)) | + (weakly (+; >20-60%))
Lactobacillus rhamnosus NK211 | − (not or less than 20% (−; <20%)) | − (not or less than 20% (−; <20%)) | + (weakly (+; >20-60%)) | + (weakly (+; >20-60%)) | + (weakly (+; >20-60%)) | + (weakly (+; >20-60%)) | − (not or less than 20% (−; <20%))
Lactobacillus rhamnosus NK212 | + (weakly (+; >20-60%)) | − (not or less than 20% (−; <20%)) | − (not or less than 20% (−; <20%)) | − (not or less than 20% (−; <20%)) | − (not or less than 20% (−; <20%)) | ++ (strongly (++; >60-90%)) | − (not or less than 20% (−; <20%))
Lactobacillus sakei NK197 | + (weakly (+; >20-60%)) | − (not or less than 20% (−; <20%)) | + (weakly (+; >20-60%)) | + (weakly (+; >20-60%)) | + (weakly (+; >20-60%)) | ++ (strongly (++; >60-90%)) | + (weakly (+; >20-60%))
Lactobacillus sakei NK198 | ++ (strongly (++; >60-90%)) | − (not or less than 20% (−; <20%)) | − (not or less than 20% (−; <20%)) | − (not or less than 20% (−; <20%)) | − (not or less than 20% (−; <20%)) | ++ (strongly (++; >60-90%)) | + (weakly (+; >20-60%))
